In PubChem BioAssay AID1963441 (Molecular Pharmacology Branch, DTP, NCI, 2024):

Tested on: NCI-H1876 complex spheroid growth, % test/control
Test: Anticancer human tumor NCI-H1876 cell line growth inhibition [Asc];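 also: compound exposure lasted 7 days starting three days after seeding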;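 as to viability, T/C: 100% = DMSO vehicle control wells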
Details: for IC50: curve of first compound; for viability, T/C: stronger effect = lower value
Outline: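 Tumor cells were grown as complex spheroids with human endothelial cells (HUVEC) and human mesenchymal stem cells as stroma. Agents were tested alone and in combination, in half-log steps down from the clinical Cmax, or from 10 microM where Cmax was unknown.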

[1] = second compound 0.00949 µM, first compound 0.0316 µM
[2] = second compound 0.00949 µM, first compound 0.1 µM
[3] = second compound 0.00949 µM, first compound 0.316 µM
[4] = second compound 0.00949 µM, first compound 1 µM
[5] = second compound 0.03 µM, first compound 0.0316 µM
[6] = second compound 0.03 µM, first compound 0.1 µM
[7] = second compound 0.03 µM, first compound 0.316 µM
[8] = second compound 0.03 µM, first compound 1 µM
[9] = second compound 0.0949 µM, first compound 0.0316 µM
[10] = second compound 0.0949 µM, first compound 0.1 µM
[11] = second compound 0.0949 µM, first compound 0.316 µM
[12] = second compound 0.0949 µM, first compound 1 µM
[13] = second compound 0.3 µM, first compound 0.0316 µM
[14] = second compound 0.3 µM, first compound 0.1 µM
[15] = second compound 0.3 µM, first compound 0.316 µM
[16] = second compound 0.3 µM, first compound 1 µM
[17] = second compound 0.949 µM, first compound 0.0316 µM
[18] = second compound 0.949 µM, first compound 0.1 µM
[19] = second compound 0.949 µM, first compound 0.316 µM
[20] = second compound 0.949 µM, first compound 1 µM
[21] = second compound 3 µM, first compound 0.0316 µM
[22] = second compound 3 µM, first compound 0.1 µM
[23] = second compound 3 µM, first compound 0.316 µM
[24] = second compound 3 µM, first compound 1 µM

SMILES: C#Cc1c(F)ccc2cc(O)cc(-c3ncc4c(N5CC6CCC(C5)N6)nc(OCC56CCCN5CC(F)C6)nc4c3F)c12 (centres undefined) + CCN1C(C(=O)NC23CCC(C(=O)O)(CC2)CC3)C(c2cccc(Cl)c2F)C2(C(=O)Nc3cc(Cl)ccc32)C12CCCCC2
- IC50 (second compound 0.00949 µM): > 10 µM
- IC50 (second compound 0.03 µM): > 10 µM
- IC50 (second compound 0.0949 µM): > 10 µM
- IC50 (second compound 0.3 µM): > 10 µM
- IC50 (second compound 0.949 µM): > 10 µM
- IC50 (second compound 3 µM): > 10 µM
- viability, T/C [1]: 89.2%
- viability, T/C [2]: 97.2%
- viability, T/C [3]: 98.5%
- viability, T/C [4]: 95.6%
- viability, T/C (second compound 0.00949 µM, first compound 3.16 µM): 98.1%
- viability, T/C (second compound 0.00949 µM, first compound 10 µM): 87.1%
- viability, T/C [5]: 94.8%
- viability, T/C [6]: 106%
- viability, T/C [7]: 98.5%
- viability, T/C [8]: 103%
- viability, T/C (second compound 0.03 µM, first compound 3.16 µM): 95.3%
- viability, T/C (second compound 0.03 µM, first compound 10 µM): 89.8%
- viability, T/C [9]: 101%
- viability, T/C [10]: 112%
- viability, T/C [11]: 102%
- viability, T/C [12]: 97.7%
- viability, T/C (second compound 0.0949 µM, first compound 3.16 µM): 96.3%
- viability, T/C (second compound 0.0949 µM, first compound 10 µM): 88.4%
- viability, T/C [13]: 105%
- viability, T/C [14]: 106%
- viability, T/C [15]: 114%
- viability, T/C [16]: 99.8%
- viability, T/C (second compound 0.3 µM, first compound 3.16 µM): 96.5%
- viability, T/C (second compound 0.3 µM, first compound 10 µM): 99.5%
- viability, T/C [17]: 118%
- viability, T/C [18]: 120%
- viability, T/C [19]: 104%
- viability, T/C [20]: 112%
- viability, T/C (second compound 0.949 µM, first compound 3.16 µM): 116%
- viability, T/C (second compound 0.949 µM, first compound 10 µM): 95%
- viability, T/C [21]: 97.4%
- viability, T/C [22]: 88%
- viability, T/C [23]: 85.2%
- viability, T/C [24]: 96.9%
- viability, T/C (second compound 3 µM, first compound 3.16 µM): 102%
- viability, T/C (second compound 3 µM, first compound 10 µM): 79.2%

SMILES: CNC(C)C(=O)NC1CN(S(=O)(=O)c2cccc(S(=O)(=O)N3CCC4CCC(C(=O)NC(c5ccccc5)c5ccccc5)N4C(=O)C(NC(=O)C(C)NC)C3)c2)CCC2CCC(C(=O)NC(c3ccccc3)c3ccccc3)N2C1=O (centres undefined) + CCN1C(C(=O)NC23CCC(C(=O)O)(CC2)CC3)C(c2cccc(Cl)c2F)C2(C(=O)Nc3cc(Cl)ccc32)C12CCCCC2
- IC50 (second compound 0.00949 µM): > 1 µM
- IC50 (second compound 0.03 µM): > 1 µM
- IC50 (second compound 0.0949 µM): > 1 µM
- IC50 (second compound 0.3 µM): > 1 µM
- IC50 (second compound 0.949 µM): > 1 µM
- IC50 (second compound 3 µM): > 1 µM
- viability, T/C (second compound 0.00949 µM, first compound 0.00316 µM): 101%
- viability, T/C (second compound 0.00949 µM, first compound 0.01 µM): 99.6%
- viability, T/C [1]: 101%
- viability, T/C [2]: 100%
- viability, T/C [3]: 116%
- viability, T/C [4]: 102%
- viability, T/C (second compound 0.03 µM, first compound 0.00316 µM): 103%
- viability, T/C (second compound 0.03 µM, first compound 0.01 µM): 96.7%
- viability, T/C [5]: 98.8%
- viability, T/C [6]: 98.4%
- viability, T/C [7]: 115%
- viability, T/C [8]: 97%
- viability, T/C (second compound 0.0949 µM, first compound 0.00316 µM): 111%
- viability, T/C (second compound 0.0949 µM, first compound 0.01 µM): 104%
- viability, T/C [9]: 106%
- viability, T/C [10]: 106%
- viability, T/C [11]: 98.5%
- viability, T/C [12]: 110%
- viability, T/C (second compound 0.3 µM, first compound 0.00316 µM): 103%
- viability, T/C (second compound 0.3 µM, first compound 0.01 µM): 108%
- viability, T/C [13]: 108%
- viability, T/C [14]: 108%
- viability, T/C [15]: 118%
- viability, T/C [16]: 103%
- viability, T/C (second compound 0.949 µM, first compound 0.00316 µM): 114%
- viability, T/C (second compound 0.949 µM, first compound 0.01 µM): 119%
- viability, T/C [17]: 106%
- viability, T/C [18]: 119%
- viability, T/C [19]: 115%
- viability, T/C [20]: 112%
- viability, T/C (second compound 3 µM, first compound 0.00316 µM): 114%
- viability, T/C (second compound 3 µM, first compound 0.01 µM): 108%
- viability, T/C [21]: 107%
- viability, T/C [22]: 99.5%
- viability, T/C [23]: 110%
- viability, T/C [24]: 109%
